Data set [1] can be described thus: Thermodynamic solubility of the compound. To be noted: read-out: Therm_solubility. It counts as physicochemical.
Data set [2] is described as follows: Permeability in human Caco2 cells. It counts as ADME, cell-based. To be noted: Caco-2, read-out: permeability.
In data set [3] the target is Methionine aminopeptidase 2 (Homo sapiens, UniProt P50579). Nature of the data set: Inhibition of recombinant human N-terminal His tagged MetAP-2 using tripeptide Met-Ala-Ser as substrate preincubated for 15 mins followed by substrate addition measured after 45 mins by L-amino acid oxidase enzyme coupled assay.

SMILES strings stand for the structures. In brackets after ≈: the same amount, converted by molar mass.

Chain of Methionine aminopeptidase 2 (P50579 whole entry): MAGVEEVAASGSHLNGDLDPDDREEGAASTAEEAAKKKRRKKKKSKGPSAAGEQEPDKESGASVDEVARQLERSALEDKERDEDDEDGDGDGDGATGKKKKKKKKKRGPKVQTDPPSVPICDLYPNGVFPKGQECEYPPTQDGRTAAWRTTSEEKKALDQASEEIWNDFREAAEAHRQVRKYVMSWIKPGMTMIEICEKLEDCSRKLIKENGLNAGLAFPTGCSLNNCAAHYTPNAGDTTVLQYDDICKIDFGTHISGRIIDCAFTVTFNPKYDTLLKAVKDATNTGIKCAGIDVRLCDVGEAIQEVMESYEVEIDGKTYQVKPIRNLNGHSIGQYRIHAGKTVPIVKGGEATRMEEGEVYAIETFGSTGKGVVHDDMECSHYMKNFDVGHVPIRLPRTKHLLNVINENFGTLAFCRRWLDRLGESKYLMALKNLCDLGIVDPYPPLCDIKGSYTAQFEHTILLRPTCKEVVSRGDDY

As to `c1ccc2c(OC[C@H]3CCCN3c3ccnc4ncnn34)cncc2c1`, in data set [1], the solubility thermodynamic amounted to 171 µg/mL (≈ 494 µM). In addition, the Papp in data set [2] worked out at 21 ×10⁻⁶ cm/s.
Regarding `Fc1cccc(OC[C@H]2CCCN2c2ncnc3[nH]ccc23)c1`, in data set [3], the IC50 (usually the concentration needed to halve the response being measured) is over 50 µM.
Consider `Clc1ccccc1OC[C@H]1CCCN1c1ncnc2ncccc12`, for which the half-maximal inhibitory concentration (IC50) in data set [3] is over 50 µM.

The values above are taken from ChEMBL document CHEMBL4000189, “Novel reversible methionine aminopeptidase-2 (MetAP-2) inhibitors based on purine and related bicyclic templates” (Bioorg Med Chem Lett, 2017).
